The values that follow are results of earlier work, collected in PubChem BioAssay AID1259409 (Chemical Carcinogenesis Research Information System (CCRIS), 2018).

The test system of this data set is rodent chemically induced tumor inhibition, incidence and multiplicity. The experiment in a line: CCRIS tumor inhibitor studies.

As for `CCNC(=O)/C=C(C)/C=C/C=C(C)/C=C/c1c(C)cc(OC)c(C)c1C`, the “tumour outcome (control, treated, inhibition, significance)” value is given as 13/27 (48%), 21/35 (60%), -25%, not significant (Carcinogen: N,N-DIMETHYLNITROSAMINE, 62-75-9, Dose [Inhibitor]: 60 MG/KG OF DIET DAILY FOR 26 WK STARTING 2 D AFTER CARCINOGEN TREATMENT AT 6 WK OF AGE AND THEN OBSERVED UNTIL DEATH (S, Route [Inhibitor]: ORAL, Species: RAT, Strain/Sex: WISTAR/FEMALE, Target Tissue: Type of Lesion: KIDNEY: EPITHELIAL TUMOR, Dose [Carcinogen]: 40 MG/KG BW ONCE, Promoter: NONE USED); 22/27 (82%), 26/35 (74%), 10%, not significant (Carcinogen: N,N-DIMETHYLNITROSAMINE, 62-75-9, Dose [Inhibitor]: 60 MG/KG OF DIET DAILY FOR 26 WK STARTING 2 D AFTER CARCINOGEN TREATMENT AT 6 WK OF AGE AND THEN OBSERVED UNTIL DEATH (S, Route [Inhibitor]: ORAL, Species: RAT, Strain/Sex: WISTAR/FEMALE, Target Tissue: Type of Lesion: KIDNEY: MESENCHYMAL TUMOR, Dose [Carcinogen]: 40 MG/KG BW ONCE, Promoter: NONE USED); 33%, 19%, 42%, not significant (Carcinogen: N-METHYL-N-NITROSOUREA, 684-93-5, Dose [Inhibitor]: 60 MG/KG OF DIET DAILY STARTING 5 D AFTER FINAL INSTILLATION OF CARCINOGEN AND CONTINUING THROUGH END OF STUDY (STUDY DU, Route [Inhibitor]: ORAL, Species: RAT, Strain/Sex: F344/MALE, Target Tissue: Type of Lesion: COLON: INVASIVE TUBULOPAPILLARY ADENOCARCINOMA, Dose [Carcinogen]: 0.5 MG 2/WK FOR 8 WK, Promoter: NONE USED); 80%, 85%, -6%, not significant (Carcinogen: N-METHYL-N-NITROSOUREA, 684-93-5, Dose [Inhibitor]: 60 MG/KG OF DIET DAILY STARTING 5 D AFTER FINAL INSTILLATION OF CARCINOGEN AND CONTINUING THROUGH END OF STUDY (STUDY DU, Route [Inhibitor]: ORAL, Species: RAT, Strain/Sex: F344/MALE, Target Tissue: Type of Lesion: COLON: INVASIVE TUBULOPAPILLARY ADENOCARCINOMA, Dose [Carcinogen]: 1 MG 2/WK FOR 8 WK, Promoter: NONE USED); 95%, 100%, -5%, not significant (Carcinogen: N-METHYL-N-NITROSOUREA, 684-93-5, Dose [Inhibitor]: 60 MG/KG OF DIET DAILY STARTING 5 D AFTER FINAL INSTILLATION OF CARCINOGEN AND CONTINUING THROUGH END OF STUDY (STUDY DU, Route [Inhibitor]: ORAL, Species: RAT, Strain/Sex: F344/MALE, Target Tissue: Type of Lesion: COLON: INVASIVE TUBULOPAPILLARY ADENOCARCINOMA, Dose [Carcinogen]: 2 MG 2/WK FOR 8 WK, Promoter: NONE USED).

Take `S=C=Nc1ccccc1`: the “tumour outcome (control, treated, inhibition, significance)” value is 100%, 100%, 0% (Carcinogen: 4-(METHYLNITROSAMINO)-1-(3-PYRIDYL)-1-BUTANONE, 64091-91-4, Dose [Inhibitor]: 0, 5 UMOL 1/D FOR 4 D ADMINISTERED PRIOR TO CARCINOGEN DOSE (STUDY DURATION: 116 D), Route [Inhibitor]: GAVAGE, Species: MOUSE, Strain/Sex: STRAIN-A, Target Tissue: Type of Lesion: LUNG: ADENOMA, Dose [Carcinogen]: 10 UMOL IN SALINE ADMINISTERED 2 HR POST LAST AGENT DOSE, Promoter: NONE USED); 100%, 100%, 0%, not significant (Carcinogen: 4-(METHYLNITROSAMINO)-1-(3-PYRIDYL)-1-BUTANONE, 64091-91-4, Dose [Inhibitor]: 0, 5 UMOL 1/D FOR 4 D ADMINISTERED PRIOR TO CARCINOGEN TREATMENT (STUDY DURATION: 116 D), Route [Inhibitor]: GAVAGE, Species: MOUSE, Strain/Sex: STRAIN A, Target Tissue: Type of Lesion: LUNG: ADENOMA, Dose [Carcinogen]: 10 UMOL ONCE, 2 HR AFTER FINAL DOSE OF INHIBITOR, Promoter: NONE USED); 100%, 100%, 0%, not significant (Carcinogen: 4-(METHYLNITROSAMINO)-1-(3-PYRIDYL)-1-BUTANONE, 64091-91-4, Dose [Inhibitor]: 0, 5 UMOL/D FOR 4 CONSECUTIVE DAYS (STUDY DURATION: 17 WK), Route [Inhibitor]: GAVAGE, Species: MOUSE, Strain/Sex: STRAIN-A/FEMALE, Target Tissue: Type of Lesion: LUNG: ADENOMA, Dose [Carcinogen]: 10 UMOL ONCE 2 HR POST LAST AGENT DOSE, Promoter: NONE USED); 30/30 (100%), 30/30 (100%), 0% (Carcinogen: 4-(METHYLNITROSAMINO)-1-(3-PYRIDYL)-1-BUTANONE, 64091-91-4, Dose [Inhibitor]: 5 UMOL/D FOR 4 CONSECUTIVE DAYS (STUDY DURATION: 16 WK), Route [Inhibitor]: GAVAGE, Species: MOUSE, Strain/Sex: STRAIN-A/FEMALE, Target Tissue: Type of Lesion: LUNG: ADENOMA, Dose [Carcinogen]: 10 UMOL ONCE 2 HR POST LAST AGENT DOSE, Promoter: NONE USED); 100%, 100%, 0%, not significant (Carcinogen: 4-(N-NITROSOMETHYLAMINO)-1-(3-PYRIDYL)-1-BUTANONE, 64091-91-4, Dose [Inhibitor]: 0, 5 UMOL/D FOR 4 CONSECUTIVE DAYS (STUDY DURATION: 16.5 WK), Route [Inhibitor]: GAVAGE, Species: MOUSE, Strain/Sex: STRAIN-A/FEMALE, Target Tissue: Type of Lesion: LUNG: ADENOMA, Dose [Carcinogen]: 10 UMOL ONCE 2 HR POST LAST AGENT DOSE, Promoter: NONE USED); 86%, 46%, 46%, p<0.05 (Carcinogen: 7,12-DIMETHYLBENZ[A]ANTHRACENE, 57-97-6, Dose [Inhibitor]: 23 MG ONCE 4 HR PRIOR TO CARCINOGEN DOSE (STUDY DURATION: 18 WK), Route [Inhibitor]: INTRAGASTRIC, Species: RAT, Strain/Sex: SPRAGUE-DAWLEY/FEMALE, Target Tissue: Type of Lesion: MAMMARY GLAND: TUMOR, Dose [Carcinogen]: 12 MG IN 1 ML OLIVE OIL AT AGE 7 WK, Promoter: NONE USED).

Turning to `N[C@@H](Cc1ccccc1)C(=O)O`, the “tumour outcome (control, treated, inhibition, significance)” value (Carcinogen: N-METHYL-N'-NITRO-N-NITROSOGUANIDINE, 70-25-7, Dose [Inhibitor]: 0, 6% IN DIET FOR 26 WK ADMINISTERED POST CARCINOGEN DOSE (STUDY DURATION: 52 WK ), Route [Inhibitor]: ORAL, Species: RAT, Strain/Sex: WISTAR/MALE, Target Tissue: Type of Lesion: GLANDULAR STOMACH: ADENOCARCINOMA, Dose [Carcinogen]: 50 UG/ML DRINKING WATER FOR 26 WK) is listed as 18/25 (72%), 9/25 (36%), 50%, not calculated.

`O=C(O)CCSCCC(=O)O`: the “tumour outcome (control, treated, inhibition, significance)” value (Carcinogen: 7,12-DIMETHYLBENZ[A]ANTHRACENE, 57-97-6, Dose [Inhibitor]: 1.0% IN POWDERED DIET BEGINNING 1 WK POST CARCINOGEN DOSE FOR 51 WK (STUDY DURATION: 52 WK), Route [Inhibitor]: ORAL, Species: RAT, Strain/Sex: SPRAGUE-DAWLEY/FEMALE, Target Tissue: Type of Lesion: EAR DUCT: BENIGN TUMOR, Dose [Carcinogen]: 2.5 MG/100 G BW IN 0.5 ML SESAME OIL ONCE, Promoter: NONE USED) is given as 7/19 (37%), 2/19 (11%), 72%, not calculated and the “tumour outcome (control, treated, inhibition, significance)” value (Carcinogen: 7,12-DIMETHYLBENZ[A]ANTHRACENE, 57-97-6, Dose [Inhibitor]: 1.0% IN POWDERED DIET BEGINNING 1 WK POST CARCINOGEN DOSE FOR 51 WK (STUDY DURATION: 52 WK), Route [Inhibitor]: ORAL, Species: RAT, Strain/Sex: SPRAGUE-DAWLEY/FEMALE, Target Tissue: Type of Lesion: MAMMARY GLAND: FIBROADENOMA, Dose [Carcinogen]: 2.5 MG/100 G BW IN 0.5 ML SESAME OIL ONCE, Promoter: NONE USED) is on record as 15/19 (79%), 9/19 (47%), 40%, not calculated.

On to `CCCC(=O)O`, for which the “tumour outcome (control, treated, inhibition, significance)” value runs as follows: (Carcinogen: 7,12-DIMETHYLBENZ[A]ANTHRACENE, 57-97-6, Dose [Inhibitor]: 0, 6% IN BASAL DIET BEGINNING 1 WK PRIOR TO CARCINOGEN DOSE AND CONTINUING FOR DURATION OF STUDY (STUDY DURATION: >15 WK, Route [Inhibitor]: ORAL, Species: RAT, Strain/Sex: SPRAGUE-DAWLEY/FEMALE, Target Tissue: Type of Lesion: MAMMARY GLAND: ADENOCARCINOMA, Dose [Carcinogen]: 5 MG IN 0.5 ML CORN OIL ONCE, Promoter: NONE USED) 10/26 (38%), 4/20 (20%), 47%, not significant; (Carcinogen: 7,12-DIMETHYLBENZ[A]ANTHRACENE, 57-97-6, Dose [Inhibitor]: 0, 6% IN BASAL DIET BEGINNING 1 WK PRIOR TO CARCINOGEN DOSE AND CONTINUING FOR DURATION OF STUDY (STUDY DURATION: >15 WK, Route [Inhibitor]: ORAL, Species: RAT, Strain/Sex: SPRAGUE-DAWLEY/FEMALE, Target Tissue: Type of Lesion: MAMMARY GLAND: CARCINOMA, Dose [Carcinogen]: 5 MG IN 0.5 ML CORN OIL ONCE, Promoter: NONE USED) 11/26 (42%), 8/20 (40%), 5%, not significant; (Carcinogen: 7,12-DIMETHYLBENZ[A]ANTHRACENE, 57-97-6, Dose [Inhibitor]: 0, 6% IN DIET CONTAINING 20% SAFFLOWER MARGARINE BEGINNING 1 WK PRIOR TO CARCINOGEN DOSE AND CONTINUING FOR DURATION OF, Route [Inhibitor]: ORAL, Species: RAT, Strain/Sex: SPRAGUE-DAWLEY/FEMALE, Target Tissue: Type of Lesion: MAMMARY GLAND: ADENOCARCINOMA, Dose [Carcinogen]: 5 MG IN 0.5 ML CORN OIL ONCE, Promoter: NONE USED) 14/19 (74%), 8/20 (40%), 46%, p<0.05; (Carcinogen: 7,12-DIMETHYLBENZ[A]ANTHRACENE, 57-97-6, Dose [Inhibitor]: 0, 6% IN DIET CONTAINING 20% SAFFLOWER MARGARINE BEGINNING 1 WK PRIOR TO CARCINOGEN DOSE AND CONTINUING FOR DURATION OF, Route [Inhibitor]: ORAL, Species: RAT, Strain/Sex: SPRAGUE-DAWLEY/FEMALE, Target Tissue: Type of Lesion: MAMMARY GLAND: CARCINOMA, Dose [Carcinogen]: 5 MG IN 0.5 ML CORN OIL ONCE, Promoter: NONE USED) 16/19 (84%), 11/20 (55%), 35%, p<0.05.
